Results: PMC6332220, “Synthesis, Characterization and Biological Evaluation of Some Quinoxaline Derivatives: A Promising and Potent New Class of Antitumor and Antimicrobial Agents” (Molecules, 2015)
Values after ≈ are worked out from the molar mass of the structure shown.

What was measured:
Aspergillus flavus = assay: Disk diffusion, Aspergillus flavus; assay type: cell-based; conditions: Fungi, 8.0 mm disks, 10 μL
Procedure: (§1) The disk diffusion method was used for determination of the antimicrobial activity using ampicillin, gentamicin and amphotericin B as reference drugs. The results were recorded for each compounds as the average diameter as inhibition zones (IZ) of bacterial or fungal growth around the discs in mm as shown in Table 2.
(§2) Antimicrobial activities were carried out against highly pathogenic strains; three strains of Gram positive bacteria (Bacillus subtilis, Staphylococcus aureus and Streptococcus faecalis), four strains of Gram negative bacteria (Escherichia coli, Neisseria gonorrhoeae, Pseudomonas aeruginosa and Salmonella typhimurium) and three fungi strains (Aspergillus flavus, Aspergillus fumigatus and Candida albicans) isolated from primary agar plates. Antimicrobial activity of the tested samples was determined using a modified Kriby-Bauer disk diffusion method. Briefly, 100 µL of the test bacteria/fungi were grown in 10 mL of fresh media until they reached a count approximately 10^8 cells/mL for bacteria or 10^5 cells/mL for fungi. 100 µL of microbial suspension was spread onto agar plates corresponding to the broth in which they were maintained. The inoculated plates of bacterial strains were incubated at 35–37 °C for 24–48 h, while the inoculated plates of fungal strains such as A. flavus and A. fumigatus were incubated at 25 °C for 48 h and yeast as C. albicans was incubated at 30 °C for 24–48 h.
(§3) The agar disk diffusion (qualitative) method was used in this investigation for determination of the preliminary antibacterial and antifungal activities. The agar used was Mueller-Hinton agar plates that are rigorously tested for composition and pH. Further the depth of the agar in the plate is a factor to be considered in the disk diffusion method.
(§4) Reference drugs: ampicillin was used as a standard antibacterial drug for Gram positive bacteria, gentamicin as a standard antibacterial drug for Gram negative bacteria and amphotericin B as antifungal standard drug.
(§5) Bacterial and fungal strains were spread onto the surface of the agar plates using sterile cotton swabs. For evaluation of antibacterial activities, blank paper disks (Schleicher & Schuell, Alicante, Spain) with a diameter of 8.0 mm were saturated with 10 μL of tested concentration of the stock solutions. Disks were dried and then placed onto inoculated agar plates. The plates of bacterial strains were reincubated at 35–37 °C for 24–48 h, while the plates of fungal strains such as A. flavus and A. fumigatus were reincubated at 25 °C for 48 h and yeast as C. albicans was reincubated at 30 °C for 24–48 h as mentioned above. […] For an accurate analysis, tests were run in triplicate for each strain to avoid any error as described in Table 2.
(§6) Disk diffusion method for filamentous fungi testing by using approved standard method (M02-A11) developed by the CLSI for evaluating the susceptibilities of filamentous fungi to antifungal agents. Disk diffusion method for yeasts developed by using approved standard method (M44-A2) by the CLSI [44]. Agar-based methods such as disk diffusion can be good alternatives because they are simpler and faster than broth-based methods.

Aspergillus fumigatus = assay: Disk diffusion, Aspergillus fumigatus; assay type: cell-based; conditions: Fungi, 8.0 mm disks, 10 μL
Procedure: as §1, §2, §3, §4, §5, §6

Candida albicans = assay: Disk diffusion, Candida albicans; assay type: cell-based; conditions: Fungi, 8.0 mm disks, 10 μL
Procedure: as §1, §2, §3, §4, §5, §6

[1] = system: MCF-7 (breast adenocarcinoma); assay: In vitro cytotoxicity, SRB cell growth assay, MCF-7; conditions: Homo sapiens, MCF7, 48 h, read-out: IC50 (μg/mL) MCF-7
Procedure: (§7) The in vitro cytotoxic activity of the newly synthesized compounds against human breast cell line (MCF7), non-small cell lung cancer NCIH460, CNS cancer SF-268 and WI 38 (normal fibroblast cells) were evaluated using doxorubicin as the reference drug according to the method reported by Skehan et al..
(§8) The newly synthesized compounds were evaluated in vitro against three human cancer cell lines; which are MCF-7 (breast adenocarcinoma), NCI-H460 (non-small cell lung cancer) and SF-268 (CNS cancer), and WI 38 (normal fibroblast cells) were used in this study. MCF-7 was obtained from the European Collection of Cell Cultures (ECACC, Salisbury, UK) but NCI-H460, SF-268 and WI 38 were kindly provided by the National Cancer Institute (NCI, Cairo, Egypt). They grow as monolayer and routinely maintained RPMI-1640 medium supplemented with 5% heat inactivated fetal bovine serum (FBS), 2 mM glutamine and antibiotics (penicillin 100 U/mL, streptomycin 100 µg/mL), at 37 °C in a humidified atmosphere containing 5% CO2. Exponentially growing cells were obtained by plating 1.5 × 10^5 cells/mL for MCF-7 and SF-268, and 0.75 × 10^4 cells/mL for NCI-H460 followed by 24 h of incubation. The effect of the vehicle solvent (DMSO) on the growth of these cell lines was evaluated in all experiments by exposing untreated control cells to the maximum concentration (0.5%) of DMSO used in each assay.
(§9) The effect of compounds on the in vitro growth of human tumor cell lines were evaluated according to the procedure adopted by the National Cancer Institute ([…]) in the “In vitro Anticancer Drug Discovery Screen” that uses the protein-binding dye sulforhodamine B (SRB) to assess cell growth. In the assay protocol, all cells were incubated at 37 °C under humidified atmosphere containing 5% CO2. Briefly, exponentially cells growing in 96-well plates were then exposed for 48 h to five serial concentrations of each compound, starting from a maximum concentration of 150 μg/mL. Following this exposure period adherent cells were fixed, washed and stained. The bound stain was solubilized and the absorbance was measured at 492 nm in a plate reader (Bio-Tek Instruments Inc., Power wave XS, Winston, NC, USA). For each test compound and cell line, a dose response curve was obtained and the inhibitory concentration of 50% (IC50), corresponding to the concentration of the compounds that inhibited 50% of the net cell growth was calculated as described elsewhere. Doxorubicin was used as a positive control and tested in the same manner.

[2] = system: NCI-H460 (non-small cell lung cancer); assay: In vitro cytotoxicity, SRB cell growth assay, NCI-H460; conditions: Homo sapiens, NCI-H460, 48 h, read-out: IC50 (μg/mL) NCI-H460
Procedure: as §7, §8, §9

SF-268 (CNS cancer) = assay: In vitro cytotoxicity, SRB cell growth assay, SF-268; conditions: Homo sapiens, SF-268, 48 h, read-out: IC50 (μg/mL) SF-268
Procedure: as §7, §8, §9

[3] = system: WI 38 (normal fibroblast cells); assay: In vitro cytotoxicity, SRB cell growth assay, normal cells WI 38; assay type: cell-based, human; conditions: 48 h exposure, non-cytotoxic = IC50 >100 μg/mL; for IC50: Homo sapiens, WI-38, 48 h
Procedure: as §7, §8, §9

Bacillus subtilis = assay: Disk diffusion, Bacillus subtilis; assay type: cell-based; conditions: Gram positive, 8.0 mm disks, 10 μL
Procedure: as §1, §2, §3, §4, §5

Staphylococcus aureus = assay: Disk diffusion, Staphylococcus aureus; assay type: cell-based; conditions: Gram positive, 8.0 mm disks, 10 μL
Procedure: as §1, §2, §3, §4, §5

Streptococcus faecalis = assay: Disk diffusion, Streptococcus faecalis; assay type: cell-based; conditions: Gram positive, 8.0 mm disks, 10 μL
Procedure: as §1, §2, §3, §4, §5

Escherichia coli = assay: Disk diffusion, Escherichia coli; assay type: cell-based; conditions: Gram negative, 8.0 mm disks, 10 μL
Procedure: as §1, §2, §3, §4, §5

Neisseria gonorrhoeae = assay: Disk diffusion, Neisseria gonorrhoeae; assay type: cell-based; conditions: Gram negative, 8.0 mm disks, 10 μL
Procedure: as §1, §2, §3, §4, §5

Pseudomonas aeruginosa = assay: Disk diffusion, Pseudomonas aeruginosa; assay type: cell-based; conditions: Gram negative, 8.0 mm disks, 10 μL
Procedure: as §1, §2, §3, §4, §5

Salmonella typhimurium = assay: Disk diffusion, Salmonella typhimurium; assay type: cell-based; conditions: Gram negative, 8.0 mm disks, 10 μL
Procedure: as §1, §2, §3, §4, §5

melting point [°C]	Structure (SMILES)	Inhibition Zone Diameter (IZ) (mm) Aspergillus flavus (Aspergillus flavus)	Inhibition Zone Diameter (IZ) (mm) Aspergillus fumigatus (Aspergillus fumigatus)	Inhibition Zone Diameter (IZ) (mm) Candida albicans (Candida albicans)	IC50 [1] [µg/mL]	IC50 [2] [µg/mL]	IC50 (SF-268 (CNS cancer)) [µg/mL]	IC50 [3] [µg/mL]	Inhibition Zone Diameter (IZ) (mm) Bacillus subtilis (Bacillus subtilis) [mm]	Inhibition Zone Diameter (IZ) (mm) Staphylococcus aureus (Staphylococcus aureus) [mm]	Inhibition Zone Diameter (IZ) (mm) Streptococcus faecalis (Streptococcus faecalis) [mm]	Inhibition Zone Diameter (IZ) (mm) Escherichia coli (Escherichia coli) [mm]	Inhibition Zone Diameter (IZ) (mm) Neisseria gonorrhoeae (Neisseria gonorrhoeae)	Inhibition Zone Diameter (IZ) (mm) Pseudomonas aeruginosa (Pseudomonas aeruginosa) [mm]	Inhibition Zone Diameter (IZ) (mm) Salmonella typhimurium (Salmonella typhimurium) [mm]	IC50 (μg/mL) WI 38 [3]
	C[C@@H]1[C@H](O)[C@@H](C)/C=C/C=C/C=C/C=C/C=C/C=C/C=C/[C@H](O[C@@H]2O[C@H](C)[C@@H](O)[C@H](N)[C@@H]2O)C[C@@H]2O[C@](O)(C[C@@H](O)C[C@@H](O)[C@H](O)CC[C@@H](O)C[C@@H](O)CC(=O)O[C@H]1C)C[C@H](O)[C@H]2C(=O)O [Amphotericin B, reference compound]	17 mm	23 mm	19 mm												
152 to 154	CC1=NN(c2nc3ccc(Br)cc3nc2N2N=C(C)CC2=O)C(=O)C1 [Compound 17, 6-Bromo-2,3-bis(3-methyl-1H-pyrazol-5(4H)-one)quinoxaline]	R (R (IZ = 0 mm))	R (R (IZ = 0 mm))	R (R (IZ = 0 mm))	21.23 ± 0.14 (≈ 52.9 µM)	15.81 ± 0.1 (≈ 39.4 µM)	21.3 ± 2.12 (≈ 53.2 µM)	21.4 ± 2.02 (≈ 53.3 µM)	7	8	10	11	6 mm	8	5	
	CNC(C)C1CCC(N)C(OC2C(N)CC(N)C(OC3OCC(C)(O)C(NC)C3O)C2O)O1 (stereo not drawn) [Gentamicin, reference compound]											20	18 mm	17	23	
81 to 83	Cc1cc(C)n(-c2nc3cc(Br)ccc3nc2Cl)n1 [Compound 6, 6-Bromo-2-chloro-3-(3,5-dimethyl-1H-pyrazol-1-yl)quinoxaline]	R (R (IZ = 0 mm))	R (R (IZ = 0 mm))	R (R (IZ = 0 mm))	22.4 ± 10.4 (≈ 66.4 µM)	30.5 ± 10.8 (≈ 90.3 µM)	26.5 ± 2.87 (≈ 78.5 µM)	28.2 ± 0.87 (≈ 83.7 µM)	11	9	11	11	11 mm	9	8	
	COc1cccc2c1C(=O)c1c(O)c3c(c(O)c1C2=O)C[C@@](O)(C(=O)CO)C[C@@H]3O[C@H]1C[C@H](N)[C@H](O)[C@H](C)O1 [Doxorubicin, reference compound]				0.04 ± 0.008 (≈ 0.0736 µM)	0.09 ± 0.008 (≈ 0.166 µM)	0.09 ± 0.007 (≈ 0.166 µM)									non-cytotoxic
	Cc1c[nH]nc2c3n[nH]cc(C)n-3c3cc(Br)ccc3n1-2 [Compound 12, 7-Bromo-4,11-dimethyl-2,13-dihydrobis[1,2,4]triazino[4,3-a:3',4'-c]quinoxaline]	R (R (IZ = 0 mm))	R (R (IZ = 0 mm))	R (R (IZ = 0 mm))	35.2 ± 4.18 (≈ 102 µM)	34 ± 6.05 (≈ 98.6 µM)	22.1 ± 2.81 (≈ 64 µM)	23 ± 8.2 (≈ 66.5 µM)	18	19	18	17	R (R (IZ = 0 mm))	20	18	
	CC1(C)S[C@@H]2[C@H](NC(=O)[C@H](N)c3ccccc3)C(=O)N2[C@H]1C(=O)O [Ampicillin, reference compound]								20	22	19					
237 to 239	NNc1nc2cc(Br)ccc2n2nnnc12 [Compound 7, 7-Bromo-4-hydrazinyltetrazolo[1,5-a]quinoxaline]	R (R (IZ = 0 mm))	R (R (IZ = 0 mm))	R (R (IZ = 0 mm))	26.4 ± 2.1 (≈ 94.3 µM)	12.4 ± 3.01 (≈ 44.3 µM)	10.6 ± 2.83 (≈ 38 µM)		11	10	11	10	10 mm	10	9	non-cytotoxic
	Cc1cc(C)n(-c2nc3ccc(Br)cc3nc2-n2nc(C)cc2C)n1 [Compound 15, 6-Bromo-2,3-bis(3,5-dimethyl-1H-pyrazol-1-yl)quinoxaline]	R (R (IZ = 0 mm))	R (R (IZ = 0 mm))	R (R (IZ = 0 mm))	28.4 ± 5.8 (≈ 71.5 µM)	22.7 ± 8.12 (≈ 57.2 µM)	30.2 ± 2.04 (≈ 76.1 µM)	18.2 ± 4.03 (≈ 45.7 µM)	10	9	9	10	9 mm	9	10	
